Data: US11162944B2, “Compositions and methods” (priority 2015, dated 2021)
Read-outs that look alike come from different tables or passages of the source. Marks after values point to notes of the source that are not given here.

Test system: biomarker (antibody) in serum samples from patients with symptoms of tuberculosis
Assay type: binding, human

CCCCCCCCCCCCCCCCCCCCCC[C@@H](C(=O)OC[C@H]1O[C@H](OC)[C@@H](O)[C@@H]1O)[C@H](O)CCCCCCCCCCCCCCCCC[C@@H]1C[C@@H]1CCCCCCCCCCCCCCCC[C@@H](OC)[C@@H](C)CCCCCCCCCCCCCCCCCC [Antigen A]
ELISA absorbance at 492 nm (serum sample 1 TB+): 0.28*
ELISA absorbance at 492 nm (serum sample 2 TB+): 0.29*
ELISA absorbance at 492 nm (serum sample 3 TB+): 0.30*
ELISA absorbance at 492 nm (serum sample 4 TB+): 0.50*
ELISA absorbance at 492 nm (serum sample 5 TB+): 0.28*
ELISA absorbance at 492 nm (serum sample 6 TB+): 0.28*
ELISA absorbance at 492 nm (serum sample 7 TB+): 0.93*
ELISA absorbance at 492 nm (serum sample 8 TB+): 0.47*
ELISA absorbance at 492 nm (serum sample 9 TB+): 0.29*
ELISA absorbance at 492 nm (serum sample 10 TB−): 0.21
ELISA absorbance at 492 nm (serum sample 11 TB−): 0.20
ELISA absorbance at 492 nm (serum sample 12 TB−): 0.18
ELISA absorbance at 492 nm (serum sample 13 TB−): 0.22
ELISA absorbance at 492 nm (serum sample 14 TB−): 0.49*
ELISA absorbance at 492 nm (serum sample 15 TB−): 0.23
ELISA absorbance at 492 nm (serum sample 16 TB−): 0.31*
ELISA absorbance at 492 nm (serum sample 17 TB−): 0.52*
ELISA absorbance at 492 nm (serum sample 18 TB−): 0.28*
ELISA absorbance at 492 nm (serum sample 19 TB−): 0.20
ELISA absorbance at 492 nm (serum sample 20 TB−): 0.34*
ELISA absorbance at 492 nm (serum sample 21 TB−): 0.47*
ELISA absorbance at 492 nm (serum sample 22 TB−): 0.23
ELISA absorbance at 492 nm (serum sample 23 TB−): 0.25
ELISA absorbance at 492 nm (serum sample 24 TB−): 0.29*
ELISA absorbance at 492 nm (serum sample 25 TB−): 0.18
ELISA absorbance at 492 nm (serum sample 26 TB−): 0.52*
ELISA absorbance at 492 nm (serum sample 27 TB−): 0.31*
ELISA absorbance at 492 nm (serum sample 28 TB−): 0.28*
ELISA absorbance at 492 nm (serum sample 29 TB−): 0.28*
ELISA absorbance at 492 nm (serum sample 30 TB−): 0.32*
ELISA absorbance at 492 nm (serum sample 31 TB−): 0.31*
ELISA absorbance at 492 nm (serum sample 32 TB−): 0.34*
ELISA absorbance at 492 nm (serum sample 33 TB−): 0.18
ELISA absorbance at 492 nm (serum sample 34 TB−): 0.39*
ELISA absorbance at 492 nm (serum sample 35 TB−): 0.23
ELISA absorbance at 492 nm (serum sample 36 TB−): 0.11
ELISA absorbance at 492 nm (serum sample 37 TB−): 0.28*
ELISA absorbance at 492 nm (serum sample 38 TB−): 0.29*
ELISA absorbance at 492 nm (serum sample 39 TB−): 0.21
ELISA absorbance at 492 nm (serum sample 40 TB−): 0.18
ELISA absorbance at 492 nm (serum sample 41 TB−): 0.18
ELISA absorbance at 492 nm (serum sample 42 TB−): 0.30*
ELISA absorbance at 492 nm (serum sample 43 TB−): 0.25
ELISA absorbance at 492 nm (serum sample 44 TB−): 0.41*
ELISA absorbance at 492 nm (serum sample 45 TB−): 0.33*
ELISA absorbance at 492 nm (serum sample 46 TB−): 0.13
ELISA absorbance at 492 nm (serum sample 47 TB−): 0.34*
ELISA absorbance at 492 nm (serum sample 48 TB−): 0.32*
ELISA absorbance at 492 nm (serum sample 49 TB−): 0.38*
ELISA absorbance at 492 nm (serum sample 50 TB−): 0.35*
ELISA absorbance at 492 nm (serum sample 51 TB−): 0.11
ELISA absorbance at 492 nm (serum sample 52 TB−): 0.21
ELISA absorbance at 492 nm (serum sample 53 TB−): 0.16
ELISA absorbance at 492 nm (serum sample 54 TB−): 0.17
ELISA absorbance at 492 nm (serum sample 55 TB−): 0.24
ELISA absorbance at 492 nm (serum sample 56 TB−): 0.68*
ELISA absorbance at 492 nm (serum sample 57 TB−): 0.25
ELISA absorbance at 492 nm (serum sample 58 TB−): 0.25
ELISA absorbance at 492 nm (serum sample 59 TB−): 0.33*
ELISA absorbance at 492 nm (serum sample 60 TB−): 0.37*
ELISA absorbance at 492 nm (serum sample 61 TB−): 0.52*
ELISA absorbance at 492 nm (serum sample 62 TB−): 0.19
ELISA absorbance at 492 nm (serum sample 63 TB−): 0.16
ELISA absorbance at 492 nm (serum sample 64 TB−): 2.50*

CCCCCCCCCCCCCCCCCCCCCC[C@@H](C(=O)OC[C@H]1O[C@H](OC)[C@@H](O)[C@@H]1O)[C@H](O)CCCCCCCCCCCCCCCCC[C@H]1C[C@H]1CCCCCCCCCCCCCCCC[C@@H](OC)[C@@H](C)CCCCCCCCCCCCCCCCCC [Antigen E]
ELISA absorbance at 492 nm (serum sample 1 TB+): 0.42*
ELISA absorbance at 492 nm (serum sample 2 TB+): 0.36*
ELISA absorbance at 492 nm (serum sample 3 TB+): 0.77*
ELISA absorbance at 492 nm (serum sample 4 TB+): 0.90*
ELISA absorbance at 492 nm (serum sample 5 TB+): 0.38*
ELISA absorbance at 492 nm (serum sample 6 TB+): 0.54*
ELISA absorbance at 492 nm (serum sample 7 TB+): 1.15*
ELISA absorbance at 492 nm (serum sample 8 TB+): 0.69*
ELISA absorbance at 492 nm (serum sample 9 TB+): 0.56*
ELISA absorbance at 492 nm (serum sample 10 TB−): 0.35
ELISA absorbance at 492 nm (serum sample 11 TB−): 0.45*
ELISA absorbance at 492 nm (serum sample 12 TB−): 0.29
ELISA absorbance at 492 nm (serum sample 13 TB−): 0.34
ELISA absorbance at 492 nm (serum sample 14 TB−): 0.58*
ELISA absorbance at 492 nm (serum sample 15 TB−): 0.37*
ELISA absorbance at 492 nm (serum sample 16 TB−): 0.42*
ELISA absorbance at 492 nm (serum sample 17 TB−): 0.47*
ELISA absorbance at 492 nm (serum sample 18 TB−): 0.25
ELISA absorbance at 492 nm (serum sample 19 TB−): 0.31
ELISA absorbance at 492 nm (serum sample 20 TB−): 0.38*
ELISA absorbance at 492 nm (serum sample 21 TB−): 0.35
ELISA absorbance at 492 nm (serum sample 22 TB−): 0.24
ELISA absorbance at 492 nm (serum sample 23 TB−): 0.35*
ELISA absorbance at 492 nm (serum sample 24 TB−): 0.26
ELISA absorbance at 492 nm (serum sample 25 TB−): 0.18
ELISA absorbance at 492 nm (serum sample 26 TB−): 0.24
ELISA absorbance at 492 nm (serum sample 27 TB−): 0.33
ELISA absorbance at 492 nm (serum sample 28 TB−): 0.23
ELISA absorbance at 492 nm (serum sample 29 TB−): 0.29
ELISA absorbance at 492 nm (serum sample 30 TB−): 0.24
ELISA absorbance at 492 nm (serum sample 31 TB−): 0.30
ELISA absorbance at 492 nm (serum sample 32 TB−): 0.57*
ELISA absorbance at 492 nm (serum sample 33 TB−): 0.46*
ELISA absorbance at 492 nm (serum sample 34 TB−): 0.51*
ELISA absorbance at 492 nm (serum sample 35 TB−): 0.26
ELISA absorbance at 492 nm (serum sample 36 TB−): 0.23
ELISA absorbance at 492 nm (serum sample 37 TB−): 0.41*
ELISA absorbance at 492 nm (serum sample 38 TB−): 0.40*
ELISA absorbance at 492 nm (serum sample 39 TB−): 0.31
ELISA absorbance at 492 nm (serum sample 40 TB−): 0.25
ELISA absorbance at 492 nm (serum sample 41 TB−): 0.33
ELISA absorbance at 492 nm (serum sample 42 TB−): 0.42*
ELISA absorbance at 492 nm (serum sample 43 TB−): 0.29
ELISA absorbance at 492 nm (serum sample 44 TB−): 0.67*
ELISA absorbance at 492 nm (serum sample 45 TB−): 0.35*
ELISA absorbance at 492 nm (serum sample 46 TB−): 0.26
ELISA absorbance at 492 nm (serum sample 47 TB−): 0.41*
ELISA absorbance at 492 nm (serum sample 48 TB−): 0.17
ELISA absorbance at 492 nm (serum sample 49 TB−): 0.25
ELISA absorbance at 492 nm (serum sample 50 TB−): 0.30
ELISA absorbance at 492 nm (serum sample 51 TB−): 0.18
ELISA absorbance at 492 nm (serum sample 52 TB−): 0.26
ELISA absorbance at 492 nm (serum sample 53 TB−): 0.25
ELISA absorbance at 492 nm (serum sample 54 TB−): 0.20
ELISA absorbance at 492 nm (serum sample 55 TB−): 0.22
ELISA absorbance at 492 nm (serum sample 56 TB−): 0.31
ELISA absorbance at 492 nm (serum sample 57 TB−): 0.29
ELISA absorbance at 492 nm (serum sample 58 TB−): 0.28
ELISA absorbance at 492 nm (serum sample 59 TB−): 0.25
ELISA absorbance at 492 nm (serum sample 60 TB−): 0.29
ELISA absorbance at 492 nm (serum sample 61 TB−): 0.34
ELISA absorbance at 492 nm (serum sample 62 TB−): 0.35*
ELISA absorbance at 492 nm (serum sample 63 TB−): 0.22
ELISA absorbance at 492 nm (serum sample 64 TB−): 3.98*
